Experimental data: patent US11236102B2, “Oxabicycloheptane prodrugs” (Lixte Biotechnology, Inc., priority 2015, dated 2022)
Where “and” joins values, the source holds several entries; their conditions need not be identical. Identical values can stand only once. Marks after values point to notes of the source that are not given here.

Experiment: Pharmacokinetic study of 153 (iv, po) in SD rats: 153 and endothal in plasma, liver, brain
Type: in vivo, SD rats
Description: The blood, liver and brain tissue samples were collected at predetermined times from rats. […] Compound were diluted shortly before use in 4% sodium bicarbonate for sterile injection (this is the standard pediatric solution of NaHCO3 with a pH of about 8.5).
Compound 153 was freshly prepared by diluting the drugs shortly before use in 4% sodium bicarbonate for sterile injection (this is the standard pediatric solution of NaHCO3 with a pH of about 8.5). The final concentrations of 153 solutions were 0.25 mg/mL. The 153 solutions were administered via iv or po route at dose volume of 5 ml/kg according to the latest body weight. Compound 157 was freshly prepared by diluting the drugs shortly before use in 4% sodium bicarbonate for sterile injection (this is the standard pediatric solution of NaHCO3 with a pH of about 8.5). The final concentrations of […] solutions were 0.3 mg/mL. The 157 solutions were administered via iv or po route at dose volume of 5 ml/kg according to the latest body weight.
Twelve (12) female SD rats per group were dosed by iv with 153 or 157. The rats were fasted overnight prior to dosing, with free access to water. Foods were withheld for 2 hours post-dose. Blood, liver and brain tissue samples in two animals each group were collected at each time point, within 10% of the scheduled time for each time point. Two extra animals were used for analytic method development.
Blood (>0.3 mL) were collected via aorta abdominalis in anaesthetic animals into tubes containing heparin at 15 min, 1, 2, 6, 10 and 24 hours after iv administration. Liver and brain tissues were collected immediately after animal death. The liver and brain tissues were excised and rinsed with cold saline to avoid blood residual. Upon collection, each sample was placed on ice and the blood samples were subsequently centrifuged (4° C., 11000 rpm, 5 min) to separate plasma.
The obtained plasma, liver and brain tissue samples were stored at −70° C. until LC-MS/MS analysis.
Two (2) female SD rats per group were dosed by po with 153 or 157. The rats were fasted overnight prior to dosing, with free access to water. Foods were withheld for 2 hours post-dose. Blood samples (>0.3 mL) were collected via aorta abdominalis in anaesthetic animals into tubes containing heparin at 30 min, 1, 2, 6, 10 and 24 hours after po administration.
To each sample, 20 μL IS-D (for blank samples, 20 μL acetonitrile:water (1:1) was added) and 300 μl acetonitrile was added. The sample mixture was vortexed for approximately 3 min. After centrifugation at 10000 rpm for 5 min at 4° C., 100 μL of the upper layer was transferred to a new tube and added 200 μL 0.4% formic acid in water (pH 6.0). The mixture was vortexed for approximately 3 min before injected onto the LC/MS/MS system for analysis.
On the day of the assay, the frozen liver and brain samples were thawed unassisted at room temperature. An about 200 mg weighed sample of each thawed tissue was placed into a plastic tube with water (0.6 mL) to facilitate homogenization. Tissue processing was conducted using a homogenizer for approximately 1 min, 200 μl homogenate was transferred into a fresh Eppendorf tube. To each tube, 50 μL IS-D was added and mixed. Then 600 ul acetonitrile was added and the sample mixture was vortexed for approximately 3 min. After centrifugation at 10000 rpm for 5 min at 4° C., 400 μL of the upper layer was transferred to a new tube and evaporate the supernatant to dryness at 35° C. Reconstitute the residue with 200 μL of 0.4% formic acid in water (pH6.0), and vortex for 3 min, submit for LC-MS/MS analysis.
Frozen unknown plasma samples were completely thawed at room temperature and vortexed thoroughly. With a pipette, 50 μL of plasma was transferred into a 2.0 mL Eppendorf tube. 50 μL of 0.1N HCl and 800 μL ethyl acetate were added into each sample. The sample mixture was vortexed for approximately 3 min.

[1] = iv 1.25 mg/kg, 0.25 hr, individual rats, 1.25 mg/kg
[2] = iv 1.25 mg/kg, 1 hr, individual rats, 1.25 mg/kg
[3] = iv 1.25 mg/kg, 2 hr, individual rats, 1.25 mg/kg
[4] = plasma, 153 1.25 mg/kg PO, individual rats, 1.25 mg/kg

## CCCOC(=O)C1C2CCC(O2)C1C(=O)N1CCN(C)CC1 (stereo not shown) [Compound 153]
PO 1.25 mg/kg, 0.25 hr, individual rats, 1.25 mg/kg
  153 plasma concentration: 652 ng/mL
PO 1.25 mg/kg, 1 hr, individual rats, 1.25 mg/kg
  153 plasma concentration: 121 ng/mL
female, SD, rat, in vivo, iv, 1.25 mg/kg, MRT (0 t)
  MRT: 40 min
female, SD, rat, in vivo, po, 1.25 mg/kg
  MRT (0 t): 60.6 min
female, SD, rat, in vivo, po, 1.25 mg/kg, MRT (0 t)
  MRT: 59.2 min
female, SD, rat, in vivo, plasma, 153 1.25 mg/kg PO, individual rats, read-out: MRT (0 t)
  MRT: 62.4 min
female, Sprague-Dawley, rat, in vivo, iv, 1.25 mg/kg
  Cmax: 762 ng/g
female, Sprague-Dawley, rat, in vivo, po, 1.25 mg/kg
  concentration at 2 hr: 42 ng/mL
female, Sprague-Dawley, rat, in vivo, po, 1.25 mg/kg, PO 1.25 mg/kg, 0.25 hr, individual rats
  concentration at 0.25 hr: 872 ng/mL
female, Sprague-Dawley, rat, in vivo, po, 1.25 mg/kg, PO 1.25 mg/kg, 0.25 hr, mean
  concentration at 0.25 hr: 762 ng/mL
female, Sprague-Dawley, rat, in vivo, po, 1.25 mg/kg, PO 1.25 mg/kg, 1 hr, individual rats
  concentration at 1 hr: 131 ng/mL
female, Sprague-Dawley, rat, in vivo, po, 1.25 mg/kg, PO 1.25 mg/kg, 1 hr, mean
  concentration at 1 hr: 126 ng/mL
female, Sprague-Dawley, rat, in vivo, po, 1.25 mg/kg, PO 1.25 mg/kg, 2 hr, individual rats, read-out: 153 plasma concentration
  concentration at 2 hr: 41.2 ng/mL
female, Sprague-Dawley, rat, in vivo, po, 1.25 mg/kg, PO 1.25 mg/kg, 2 hr, mean, read-out: 153 plasma concentration
  concentration at 2 hr: 41.6 ng/mL
[1]
  153 brain concentration: 45 ng/g and 40.3 ng/g
  153 liver concentration: 872 ng/g and 652 ng/g
  153 plasma concentration: 563 ng/mL and 550 ng/mL
Iv 1.25 mg/kg, 0.25 hr, mean
  153 brain concentration: 42.7 ng/g
  153 liver concentration: 762 ng/g
  153 plasma concentration: 557 ng/mL
[2]
  153 brain concentration: 13.9 ng/g and 14.3 ng/g
  153 liver concentration: 131 ng/g and 121 ng/g
  153 plasma concentration: 58 ng/mL and 51.4 ng/mL
Iv 1.25 mg/kg, 1 hr, mean
  153 brain concentration: 14.1 ng/g
  153 liver concentration: 126 ng/g
  153 plasma concentration: 54.7 ng/mL
[3]
  153 brain concentration: 4.05 ng/g and 4.75 ng/g
  153 liver concentration: 42 ng/g and 41.2 ng/g
  153 plasma concentration: 14.8 ng/mL and 13 ng/mL
Iv 1.25 mg/kg, 2 hr, mean
  153 brain concentration: 4.4 ng/g
  153 liver concentration: 41.6 ng/g
  153 plasma concentration: 13.9 ng/mL
Iv 1.25 mg/kg, 6 hr, individual rats, 1.25 mg/kg
  153 plasma concentration: 1.04 ng/mL and 1.02 ng/mL
Iv 1.25 mg/kg, 6 hr, mean
  153 plasma concentration: 1.03 ng/mL
Iv 1.25 mg/kg, 10 hr, individual rat, abnormal, not included in the calculation
  153 plasma concentration: 9.42* ng/mL
Iv administration of 153
  T1/2 in brain: 35.8 min
  T1/2 in liver: 37.6 min
plasma, 153 1.25 mg/kg IV, individual rats, 1.25 mg/kg
  Cmax: 563 ng/mL
[4]
  AUC: 163 ng·h/mL
  AUC0-∞: 163 ng·h/mL
rat, in vivo, iv
  AUClast in brain: 39.4 ng·h/g
  AUClast in liver: 500 ng·h/g
rat, in vivo, po, 1.25 mg/kg
  oral availability: orally available
